Among the data in patent publication US20090281120A1, “BICYCLIC HETEROCYCLIC COMPOUND” (ONO PHARMACEUTICAL CO., LTD, priority 2005, published 2009) are IC50 values, retold here.

Experiment [1] concerns the target T1, human CRF receptor I (Homo sapiens, UniProt P34998).
T1 construct: expressed in transfected cells; host or cells: CHO-K1
T1 sequence (P34998 24-415): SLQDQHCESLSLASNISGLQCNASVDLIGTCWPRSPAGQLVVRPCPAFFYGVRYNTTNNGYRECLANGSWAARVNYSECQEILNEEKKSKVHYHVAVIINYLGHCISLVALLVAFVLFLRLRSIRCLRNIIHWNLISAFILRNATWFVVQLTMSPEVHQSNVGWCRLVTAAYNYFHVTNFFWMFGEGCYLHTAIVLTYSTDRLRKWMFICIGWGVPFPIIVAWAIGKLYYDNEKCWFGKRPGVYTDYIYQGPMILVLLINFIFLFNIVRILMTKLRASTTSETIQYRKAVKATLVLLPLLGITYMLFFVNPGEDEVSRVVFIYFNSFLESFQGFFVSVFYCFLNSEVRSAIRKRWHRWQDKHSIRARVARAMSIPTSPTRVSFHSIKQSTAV
Kind of experiment: Binding assay (125I-CRF, membrane fraction). The note with it: 125I-CRF 0.25 nM; membrane fraction of CHO-K1 cells forcedly expressing human CRF receptor I; room temperature, 2 hours. As for the experimental part: The forced-expression cell strain of the human CRF receptor I (parent strain is CHO-K1 cell) was cultured until the cell was confluent and collected with a scraper. The collected cells were washed twice with PBS, and were suspended with an ice-colded binding assay buffer (Tris-HCl (50 mM, pH 7.0), EDTA (2 mM, pH 8.0), and MgCl2 (10 mM))). After fractured with a dounce-type homogenizer, the suspended cells were centrifuged at 10,000 g, and a membrane fraction was collected. The collected membrane fraction was resuspended with a little amount of the binding assay buffer, thereafter diluted with the binding assay buffer so as to have a concentration of 1 mg/mL. The obtained membrane fraction was used for a binding assay.
^125I-CRF was diluted with the binding assay buffer so as to have a concentration of 0.5 nM, whereby 50 μL of the diluted ^125I-CRF was added to a siliconized 1.5-mL tube. Next, test drugs diluted at appropriate times, such as DMSO (for general binding) or 100 μM of CRF (for non-specific binding), was added to a […]. Finally, 50 μL of the membrane fraction was added thereto and the reaction was started (final concentration of ^125I-CRF was 0.25 nM). The tube was incubated at room temperature for 2 hours. […] A membrane binding count was measured using a γ counter.
The specific binding count was obtained by subtracting the non-specific count from the measured count.

Experiment [2] concerns the target T1, human CRF receptor I. Kind of experiment: Receptor antagonistic activity (cyclic AMP assay). Format: cell-based. The note with it: forced expression cell strain of human CRF receptor I; stimulated with human/rat CRF; 37° C., 15 minutes; read-out: antagonistic activity against CRF IC50 value (accumulated cyclic AMP). As for the experimental part: The forced expression cell strain of the human CRF receptor I was cultured at 37° C. under 5% carbon dioxide and 95% air by using a Ham's F-12 medium (F-12 nutrient mixture) containing 10% bovine fetal serum and 1% antibiotic substance-antifungal agent. On the previous day before the cyclic AMP was measured, the cells were inoculated into a 96-well plate in an amount of 1×10^4 cell/well. On the measurement day, the cells were washed twice with a Ham's F-12 medium, whereby a solution of Ham's F-12 medium/1 mM 3-isobutyl-1-methylxanthine (assay medium) (178 μL) was added to each well. After the incubation at 37° C. for 10 minutes, test drug solutions (2 μL) in various concentrations were added thereto, or DMSO (2 μL) was added to a CRF group and a blank group. An assay medium (20 μL) containing 10 nM human/rat CRF was added to wells of a compound group and the CRF group. An assay medium (20 μL) containing 0.00001% acetic acid was added to the blank group. Each group was further incubated at 37° C. for 15 minutes. […] The accumulated cyclic AMP amounts were calculated by subtracting mean values of corresponding 2 wells in the blank group from that of 2 wells. The IC50 values were calculated with non-linear regression analysis by defining logarithm concentration of the compound as independent variable and an accumulated cyclic AMP amount as dependent variable.

Molecules are shown by their SMILES.

Regarding `CCC(CC)c1cc(C)c2nc(-c3ccc(OC)cc3Cl)c(C)n2c1` [Example 7, 2-(2-chloro-4-methoxyphenyl)-6-(1-ethylpropyl)-3,8-dimethylimidazo[1,2-a]pyridine], the figures for the IC50 in experiment [1] and in experiment [2] were 12 nM and 41 nM, respectively.
